In PubChem BioAssay (NCI):
Several values for one entry are separate records, joined by “and”; a condition that tells them apart may be missing. Equal entries are not always repeated.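 Five compound concentrations were applied to cells in 96-well plates for 48 hours; endpoints were derived by simple linear interpolation of the resulting dose-response curve. GI50 = concentration required for 50% inhibition of growth. TGI denotes the concentration required for complete inhibition of growth.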

Columns and labels:
Test in all cases: NCI tumour cell line growth inhibition, 48 h
786-0 renal = test system: 786-0 renal
HCC-2998 colon = test system: HCC-2998 colon
IGROV1 ovarian = test system: IGROV1 ovarian
M14 melanoma = test system: M14 melanoma
NCI-H522 lung = test system: NCI-H522 lung
SNB-19 CNS = test system: SNB-19 CNS
SNB-75 CNS = test system: SNB-75 CNS
SW-620 colon = test system: SW-620 colon
UACC-257 melanoma = test system: UACC-257 melanoma
EKVX NSCLC = test system: EKVX NSCLC

| SMILES | GI50 (786-0 renal) [µM] | TGI (786-0 renal) [µM] | GI50 (HCC-2998 colon) [µM] | TGI (HCC-2998 colon) [µM] | GI50 (IGROV1 ovarian) [µM] | TGI (IGROV1 ovarian) | GI50 (M14 melanoma) [µM] | TGI (M14 melanoma) [µM] | GI50 (NCI-H522 lung) [µM] | TGI (NCI-H522 lung) [µM] | GI50 (SNB-19 CNS) | TGI (SNB-19 CNS) | GI50 (SNB-75 CNS) [µM] | TGI (SNB-75 CNS) [µM] | GI50 (SW-620 colon) [µM] | TGI (SW-620 colon) | GI50 (UACC-257 melanoma) | TGI (UACC-257 melanoma) | TGI (EKVX NSCLC) [µM] | GI50 (EKVX NSCLC) [µM] |
| --- | --- | --- | --- | --- | --- | --- | --- | --- | --- | --- | --- | --- | --- | --- | --- | --- | --- | --- | --- | --- |
| Cn1cc(C2=C(c3c4n(c5ccccc35)CCCC4)C(=O)NC2=O)c2ccccc21 | > 17.8 | > 25 | > 23.8 | > 25 | > 8.23 | > 25 µM | 13.4 | > 25 | 4.29 | > 16.3 | 20.6 µM | > 25 µM | 3.82 | 19.3 | 8.74 | > 25 µM | > 21.7 µM | > 25 µM |  |  |
| CN(CCC#N)c1ccc(/C=C(\C#N)c2cccc(C(F)(F)F)c2)cc1 | 4.15 | > 100 | 5.08 | > 100 | 4.95 | > 100 µM | 3.51 | > 100 |  |  | 17 µM | > 100 µM | 4.47 | > 100 | 3.17 | > 100 µM |  |  |  |  |
| C/C=C(\C)c1cc(=O)c2c(C)cc3c(c2o1)C(=O)c1c(O)c(C2CC(C)(N(C)C)C(O)C(C)O2)cc(C2CC(N(C)C)C(O)C(C)O2)c1C3=O (stereo unspecified) |  | 0.946 |  |  |  | 3.2 µM and > 27.6 µM |  | 0.312 |  |  | 0.404 µM and 2.6 µM | 7.54 µM and 28.8 µM |  |  |  | 1.96 µM and 16.7 µM | 0.505 µM and 2.59 µM | 1.9 µM and 8.55 µM | 1.59 |  |
| N=CCCN(CCC=N)c1ccc(/C=C2\CN(NC(=O)c3ccc(Cl)cc3)C(c3ccccc3)=N2)cc1 |  | > 100 |  | > 100 |  | > 100 µM |  | > 100 |  |  |  | > 100 µM |  | > 100 |  | 30.6 µM |  | > 100 µM | > 100 |  |
| COc1cc(-c2nn(-c3ccc(NC(=O)Nc4ccc(Cl)c(Cl)c4)cc3)cc2-c2ccncc2)ccc1Cl | 2.4 | 5.43 | 2.62 | 7.65 | 4.88 | > 100 µM | 2.56 | 6.87 |  |  | 5.29 µM | > 100 µM | 2.13 | 9.75 | 4.3 | 19.4 µM | 3.17 µM | 23.5 µM | 15.3 | 2.61 |
| CCNC(C)(C)C(SS)c1ccc(Br)cc1 (stereo unspecified) |  | 49.6 |  |  |  | > 100 µM |  | > 100 |  | 35.1 |  | > 100 µM |  | > 100 |  | 56.2 µM |  | 90.8 µM | > 100 |  |
| O=C(/C=C1\C(=O)N(Cc2ccc([N+](=O)[O-])cc2)c2ccccc21)c1ccc(OCCN2CCCCC2)cc1 | 1.29 | 2.61 | 1.57 | 2.93 |  |  | 1.59 | 3.11 | 0.614 | 1.99 | 1.56 µM | 2.92 µM | 2.22 | 11.3 |  |  | 1.95 µM | 3.57 µM | 3.9 | 1.56 |
| COc1cc2c(c(OC)c1OC)C(=O)CC(c1cccc(NC(=O)c3ccc(Br)cc3)c1)O2 (stereo unspecified) | 2.97 | > 100 | 7.49 | > 100 | 3.05 | > 100 µM | 2.08 | 7.49 | 1.49 | 6.43 | 4.25 µM | > 100 µM |  |  | 3.83 | > 100 µM | 2.96 µM | 9.04 µM | > 100 | 2.5 |
